# Patent EP0308279A1, “Water-soluble polysaccharides, process for obtaining them, their use as medicaments and a preparation containing them” (LIPHA, LYONNAISE INDUSTRIELLE PHARMACEUTIQUE, priority 1987, dated 1989)
# Tested on: macrophages alvéolaires de rats Kyoto
# Assay: Activation of alveolar macrophages (cytostatic/cytotoxic activity towards tumour target cells, tritiated thymidine incorporation)
# Format: cell-based, rat
# Conditions: mean of 3 measurements
# Description: Ce test met en évidence le phénomène d'activation des macrophages par une mesure de leur activité cytostatique ou cytotoxique envers des cellules de lignée tumorale.
# Le test de mesure de l'activation des macrophages consiste à traiter une culture de macrophages alvéolaires ou péritonéaux de rat ou de souris ou de monocytes humaines par des doses des polysaccharides de l'invention variant entre 0,001 et 50 µg/ml. Il est réalisé de la manière suivante :
# 10⁵ macrophages de souris de souche Balb c, Swiss, C57/B16 ou DBA/2 ou de rat de souche Kyoto ou Wistar sont placés dans une plaque de microtitration dans du milieu de culture complété ou non par du sérum artificiel et de 1 à 10 µg/ml de polymyxine.
# On ajoute les polysaccharides de l'invention ou le tampon correspondant sans polysaccharides comme contrôle négatif. Les cellules sont incubées 24 heures à 37°C. On élimine ensuite le surnageant et lave les cellules avec du milieu de culture.
# On ajoute alors les cellules cibles tumorales L1210 ou P815 dans du milieu complet. Le rapport macrophages/cellules cibles est de 10. On incube alors la culture durant 24 heures à 37°C. Puis on ajoute 1 - 2 x 10⁴Bq de thymidine tritiée par puits. Les cellules sont récupérées après 4 heures d'incubation à 37°C sur un filtre en fibre de verre. Après séchage des filtres, la radioactivité est mesurée en présence d'un mélange scintillant.
# Les résultats correspondent à une moyenne de 3 mesures. Le pourcentage d'activation est exprimé : [formula] R : radioactivité incorporée par les cellules tumorales cultivées en présence de macrophages de référence. S : radioactivité incorporée par les cellules tumorales cultivées en présence de macrophages stimulés.
smiles,measurement,setting,value
"CC(=O)N[C@H]1C(O)O[C@H](CO)[C@@H](O)[C@@H]1O[C@H](C)C(=O)N[C@@H](C)C(=O)N[C@H](CCC(=O)O)C(N)=O (mixture of isomers) [Muramyl dipeptide (MDP), Muramyl dipeptide]",% d'activation des macrophages alvéolaires de rats Kyoto.,"dose 0,01 µg/ml",28%
same,% d'activation des macrophages alvéolaires de rats Kyoto.,dose 1 µg/ml,90%
same,% d'activation des macrophages alvéolaires de rats Kyoto.,dose 10 µg/ml,92%
